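Cells were grown in 96-well plates and exposed to each compound for 48 hours at five concentrations; endpoints were interpolated linearly between bracketing concentrations, or set to the highest concentration if not reached. At the GI50, growth is halved. TGI marks complete inhibition of growth.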
Columns and labels:
Assay in all cases: NCI tumour cell line growth inhibition, 48 h; in the data active means GI50 below about 0.43 µM; inactive means the rest
[1] = tested on: 786-0 renal
[2] = tested on: A498 renal
[3] = tested on: A549 NSCLC
[4] = tested on: ACHN renal
[5] = tested on: BT-549 breast
[6] = tested on: CAKI-1 renal
[7] = tested on: CCRF-CEM leukemia
[8] = tested on: COLO 205 colon
[9] = tested on: DU-145 prostate
[10] = tested on: HCC-2998 colon
[11] = tested on: HCT-116 colon
[12] = tested on: HCT-15 colon
[13] = tested on: HL-60(TB) leukemia
[14] = tested on: HOP-62 NSCLC
[15] = tested on: HOP-92 NSCLC
[16] = tested on: HS 578T breast
[17] = tested on: HT29 colon
[18] = tested on: IGROV1 ovarian
[19] = tested on: K-562 leukemia
[20] = tested on: KM12 colon
[21] = tested on: LOX IMVI melanoma
[22] = tested on: M14 melanoma
[23] = tested on: MALME-3M melanoma
[24] = tested on: MCF7 breast
[25] = tested on: MDA-MB-231 breast
[26] = tested on: MDA-MB-435
[27] = tested on: MOLT-4 leukemia
[28] = tested on: NCI-H226 lung
[29] = tested on: NCI-H23 lung
[30] = tested on: NCI-H460 lung
[31] = tested on: NCI-H522 lung
[32] = tested on: NCI/ADR-RES ovarian
[33] = tested on: OVCAR-3 ovarian
[34] = tested on: OVCAR-4 ovarian
[35] = tested on: OVCAR-5 ovarian
[36] = tested on: OVCAR-8 ovarian
[37] = tested on: PC-3 prostate
[38] = tested on: RPMI-8226 leukemia
[39] = tested on: RXF 393 renal
[40] = tested on: SF-268 CNS
[41] = tested on: SF-295 CNS
[42] = tested on: SF-539 CNS
[43] = tested on: SK-MEL-2 melanoma
[44] = tested on: SK-MEL-28 melanoma
[45] = tested on: SK-MEL-5 melanoma
[46] = tested on: SK-OV-3 ovarian
[47] = tested on: SN12C renal
[48] = tested on: SNB-19 CNS
[49] = tested on: SNB-75 CNS
[50] = tested on: SR leukemia
[51] = tested on: SW-620 colon
[52] = tested on: T-47D breast
[53] = tested on: TK-10 renal
[54] = tested on: U251 CNS
[55] = tested on: UACC-257 melanoma
[56] = tested on: UACC-62 melanoma
[57] = tested on: UO-31 renal

OCc1ccc(N2CCOCC2)cc1Cl
24.1 µM: TGI [55]
> 84.1 µM: TGI [52]
inactive: GI50 [1] > 100 µM | GI50 [3] > 100 µM | GI50 [4] > 100 µM | GI50 [5] > 100 µM | GI50 [6] > 100 µM | GI50 [7] > 100 µM | GI50 [8] 25 µM | GI50 [9] > 100 µM | GI50 [10] > 57.1 µM | GI50 [11] 28.6 µM | GI50 [12] > 100 µM | GI50 [13] > 100 µM | GI50 [14] > 100 µM | GI50 [15] 34.6 µM | GI50 [16] > 100 µM | GI50 [17] > 81.8 µM | GI50 [18] 6.73 µM | GI50 [19] > 100 µM | GI50 [20] > 100 µM | GI50 [21] > 100 µM | GI50 [22] > 100 µM | GI50 [23] > 100 µM | GI50 [24] 15.8 µM | GI50 [25] > 100 µM | GI50 [26] > 100 µM | GI50 [27] > 100 µM | GI50 [28] 0.705 µM | GI50 [29] > 100 µM | GI50 [30] 30.9 µM | GI50 [31] > 100 µM | GI50 [32] > 100 µM | GI50 [33] 35.2 µM | GI50 [34] 55.6 µM | GI50 [35] 2.42 µM | GI50 [36] > 100 µM | GI50 [37] > 100 µM | GI50 [38] > 84.4 µM | GI50 [39] > 79.1 µM | GI50 [40] > 100 µM | GI50 [41] 28.2 µM | GI50 [42] > 100 µM | GI50 [43] > 100 µM | GI50 [44] > 100 µM | GI50 [45] > 91.2 µM | GI50 [46] > 100 µM | GI50 [47] > 100 µM | GI50 [48] > 100 µM | GI50 [49] > 100 µM | GI50 [50] > 100 µM | GI50 [51] > 100 µM | GI50 [52] 14.7 µM | GI50 [53] 2.94 µM | GI50 [54] > 72.2 µM | GI50 [55] 7.2 µM | GI50 [56] 14.4 µM | GI50 [57] > 100 µM
> 68.1 µM: TGI [8]
> 92 µM: TGI [33]
10.6 µM: TGI [35]
> 100 µM: TGI [1] | TGI [3] | TGI [4] | TGI [5] | TGI [6] | TGI [7] | TGI [9] | TGI [10] | TGI [11] | TGI [12] | TGI [13] | TGI [14] | TGI [15] | TGI [16] | TGI [17] | TGI [19] | TGI [20] | TGI [21] | TGI [22] | TGI [23] | TGI [24] | TGI [25] | TGI [26] | TGI [27] | TGI [29] | TGI [30] | TGI [31] | TGI [32] | TGI [34] | TGI [36] | TGI [37] | TGI [38] | TGI [39] | TGI [40] | TGI [41] | TGI [42] | TGI [43] | TGI [44] | TGI [45] | TGI [46] | TGI [47] | TGI [48] | TGI [49] | TGI [50] | TGI [51] | TGI [54] | TGI [57]
32.6 µM: TGI [18]
2.37 µM: TGI [28]
active: GI50 [2] 0.224 µM
> 91.2 µM: TGI [56]
0.926 µM: TGI [2]
11.4 µM: TGI [53]
